Results published in PubChem BioAssay (NCI).
“And” between values parts separate entries of the source, which are not always exact repeats. Equal entries are not always repeated.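 Cells were grown in 96-well plates and exposed to each compound for 48 hours at five concentrations; endpoints were interpolated linearly between bracketing concentrations, or set to the highest concentration if not reached. GI50: concentration for 50% inhibition of growth. TGI is the concentration that stops growth completely.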

Legend:
Assay in all cases: NCI-60 cell line screen, 48 h
OVCAR-8 ovarian = test system: OVCAR-8 ovarian
UO-31 renal = test system: UO-31 renal
MCF7 breast = test system: MCF7 breast
OVCAR-3 ovarian = test system: OVCAR-3 ovarian
HL-60(TB) leukemia = test system: HL-60(TB) leukemia
PC-3 prostate = test system: PC-3 prostate
HOP-62 NSCLC = test system: HOP-62 NSCLC
SF-268 CNS = test system: SF-268 CNS
HS 578T breast = test system: HS 578T breast
HCT-15 colon = test system: HCT-15 colon

SMILES	TGI (OVCAR-8 ovarian) [µM]	TGI (UO-31 renal)	TGI (MCF7 breast) [µM]	TGI (OVCAR-3 ovarian) [µM]	TGI (HL-60(TB) leukemia) [µM]	TGI (PC-3 prostate) [µM]	TGI (HOP-62 NSCLC)	TGI (SF-268 CNS)	TGI (HS 578T breast) [µM]	TGI (HCT-15 colon) [µM]	GI50 (OVCAR-8 ovarian) [µM]	GI50 (UO-31 renal) [µM]	GI50 (MCF7 breast) [µM]	GI50 (OVCAR-3 ovarian) [µM]	GI50 (HL-60(TB) leukemia) [µM]	GI50 (PC-3 prostate) [µM]	GI50 (HOP-62 NSCLC) [µM]	GI50 (SF-268 CNS) [µM]	GI50 (HS 578T breast) [µM]	GI50 (HCT-15 colon) [µM]
Cc1c2cnccc2c(C)c2c1c1ccccc1n2CCOC(=O)c1ccccc1	26.9	15.3 µM	44.1	28.8	26	> 100	31.5 µM	79.5 µM	84.6	59.2										
COc1ccc(C(=O)C(C(=O)CCC(=O)Nc2ccc(Cl)c(Cl)c2)c2ccc(OC)cc2)cc1 (centres undefined)	> 100	> 100 µM		> 100	> 100		> 100 µM	> 100 µM		> 100										
O=S1OC(c2ccccc2)(c2ccccc2)C(c2ccccc2)(c2ccccc2)O1	> 100	> 100 µM		> 100	> 100		> 100 µM	> 100 µM		> 100										
CC(=O)C1(O)CC2(c3ccccc3)C(=O)C1(c1ccccc1)C(c1ccccc1)=C2c1ccccc1 (centres undefined)	> 100	> 100 µM		> 100	> 100		> 100 µM	> 100 µM		> 100										
CCOC(=O)c1noc2c1CCc1c-2cn(Cc2ccc(OC)cc2)c1-c1cc(OC)c(OC)c(OC)c1	> 100	> 100 µM	> 100	10.6	4.89	> 100	> 100 µM	> 100 µM	> 100	> 100	3.04	3.44	0.348	0.37	0.452	2.9	2.53	8.07	2.99	0.499
COc1cc(/C=C2\CC3C4CC=C5CC(OC(C)=O)CC[C@]5(C)C4CC[C@]3(C)C2=O)ccc1OCCN1CCCC1 (some centres undefined)	47	23.5 µM	> 22.4	10.5	6.89	23.2	23 µM	26.7 µM	42.7	5.3	13.8	8.67	2.69	3	2.78	8.47	9.52	8.53	20	1.91
CC[C@@]1(OP(=O)(O)O)C(=O)OCc2c1cc1n(c2=O)Cc2cc3ccccc3nc2-1		0.625 µM and 1.03 µM	1.55	3.79	0.188		1.47 µM and 0.248 µM	5.28 µM and 9.45 µM			0.427	0.099		0.93			0.0131	0.0774		
N#CC(C(=O)CCCC(=O)Nc1ccccc1[N+](=O)[O-])c1c(Cl)cccc1Cl (centres undefined)	> 100	> 100 µM		> 100	> 100		> 100 µM	> 100 µM		> 100										
COc1ccc(C2COc3c(ccc(OC)c3OC)C2=O)cc1OC (centres undefined)	> 100	> 100 µM		> 100	> 100		> 100 µM	> 100 µM												
COc1ccc(C2=NN(C(N)=S)C(c3ccc4c(c3)OCO4)C2)cc1 (centres undefined)	22.9	7.99 µM	> 100	4.72		> 100	> 100 µM	8.02 µM	7.09	> 100	3.29	1.91	3.23	2.07		4.33	3.56	2.79	2.82	2.88
O=C(CCc1nnc2s/c(=C\c3ccc([N+](=O)[O-])cc3)c(=O)n12)Nc1ccc(Cl)c(Cl)c1	38.9	> 100 µM		27	44.3		45.7 µM	35.7 µM		> 100										
O=C([CH-]C(=O)c1ccccc1)c1ccccc1.O=C([CH-]C(=O)c1ccccc1)c1ccccc1.O=C([CH-]C(=O)c1ccccc1)c1ccccc1.[Ga+3]	> 100	> 100 µM		> 100	> 100			> 100 µM			> 100	30.2		> 100	20.5			35.1		
COc1cccc2c1nc(C(F)F)n2-c1nc(-c2ccc(NS(=O)(=O)CCN(C)C)cc2)nc(N2CCOCC2)n1	> 41.1	1.1 µM		3.13	10.2	12.9	6.56 µM	13.3 µM	0.5	5.06	0.295	0.0659		0.105	0.0397	0.0923	0.123	0.157	0.0664	0.152
NC(N)NCCCc1cn2c(n1)C1CCCN1C(=O)C2Cc1ccccc1 (centres undefined)	> 100	> 100 µM		> 100			> 100 µM	> 100 µM		> 100										
Cn1cc(C2NC(=O)c3ccccc3N2)c2ccccc21 (centres undefined)	> 100	> 100 µM	5.1	2.03	0.485	0.408	> 100 µM	> 100 µM		8.48										
O=C(CCc1n[nH]c(=S)o1)Nc1cc(Cl)ccc1Cl	> 100	> 100 µM		> 100	78.9		> 100 µM	> 100 µM		38.8										
O=C1C2C3CC4C5C3C1C5C1(SCCS1)C42 (centres undefined)	> 100	> 100 µM			> 100		> 100 µM	> 100 µM		> 100										
O=c1nc2n(-c3cccc(Cl)c3)c3ccc([N+](=O)[O-])cc3cc-2c(=O)[nH]1	> 25	13 µM		4.42	> 25	15.3	9.2 µM	13.3 µM		> 25	17	5.87		1.08	1.29	6.01	2.88	3.56		9.28
Cc1ccc(S(=O)c2ccccc2[N+](=O)[O-])cc1 (centres undefined)	> 100	> 100 µM		> 100	> 100		> 100 µM			> 100										
CC(C)(CN1CCCCC1)C(=O)/C=C/c1ccccc1	49.5	39.6 µM		21.6			61.3 µM	36.8 µM		67.2										
